Measured values taken from paper PMC9782245, “Synthesis and Structural Optimization of 2,7,9-Trisubstituted purin-8-ones as FLT3-ITD Inhibitors” (International Journal of Molecular Sciences, 2022).
“And” between values parts separate entries of the source, which are not always exact repeats. Equal entries are not always repeated. Where two headings read alike, the source gives them in different places.

Tests used:
CDK4 = target: T1, CDK4 (Homo sapiens, UniProt P11802); test: Kinase selectivity panel at 1 µM (Eurofins), CDK4; assay type: biochemical
T1 construct: purchased Eurofins Discovery (France)
T1 sequence (P11802 whole entry): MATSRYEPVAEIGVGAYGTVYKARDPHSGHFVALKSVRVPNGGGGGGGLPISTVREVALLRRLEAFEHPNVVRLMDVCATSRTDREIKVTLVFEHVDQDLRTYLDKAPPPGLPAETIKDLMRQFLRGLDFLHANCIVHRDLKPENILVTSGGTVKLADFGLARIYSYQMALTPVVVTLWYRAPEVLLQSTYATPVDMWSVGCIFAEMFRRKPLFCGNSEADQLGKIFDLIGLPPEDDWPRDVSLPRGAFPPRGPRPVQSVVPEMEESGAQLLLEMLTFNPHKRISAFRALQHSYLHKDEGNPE
T1 sequence (P30281 whole entry partner): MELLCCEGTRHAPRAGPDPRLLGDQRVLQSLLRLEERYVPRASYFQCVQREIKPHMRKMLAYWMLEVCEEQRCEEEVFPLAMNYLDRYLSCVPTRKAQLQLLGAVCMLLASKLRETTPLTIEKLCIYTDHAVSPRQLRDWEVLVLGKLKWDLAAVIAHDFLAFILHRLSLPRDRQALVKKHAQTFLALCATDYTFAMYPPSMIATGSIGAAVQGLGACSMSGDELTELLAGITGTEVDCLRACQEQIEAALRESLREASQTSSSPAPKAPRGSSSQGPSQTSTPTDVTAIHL
Procedure: (§1) Three representative compounds (14d, 14e, and 15a) were profiled in a 1 µM concentration against 30 kinases that were selected as known off-targets of approved CDK4/6 inhibitors. […] Additional sensitive kinases include STK16, EphA1, MEKK2, SRC, and MER (≤10% of residual enzyme activities), which are not targets of the structurally similar CDK4/6 inhibitor, trilaciclib. We also screened compound 15a, an analogue of 14d, bearing isopropyl at position 7 of the purine instead of the methyl group. This change rapidly diminished the potency against CDK4 (dropped to 90% of residual enzyme activity), but the preference for FLT3 remained (1st rank) (Figure 2).
(§2) CDK/cyclin complexes and FLT3 kinases were assayed as previously described. Protein kinase selectivity was evaluated at a single concentration (1 µM) by screening against 30 enzymes at Eurofins Discovery (France).

CDK2/E = CDK2/E (Homo sapiens, UniProt P24941); test: Kinase inhibition assay CDK2/E; assay type: biochemical
Procedure: (§3) Newly prepared compounds 12–15 were assayed for inhibition of FLT3-ITD kinase as well as CDK4 and CDK2, known off-targets of structurally related compounds. We observed that CDK4 was sensitive to nearly all compounds with IC50 values in mid-nanomolar values.
as §2

CDK4/D1 = CDK4/D1 (Homo sapiens, UniProt P11802); test: Kinase inhibition assay CDK4/D1; assay type: biochemical
CDK4/D1, sequence (P11802 whole entry): as the sequence (P11802 whole entry) above
CDK4/D1, sequence (P24385 whole entry partner): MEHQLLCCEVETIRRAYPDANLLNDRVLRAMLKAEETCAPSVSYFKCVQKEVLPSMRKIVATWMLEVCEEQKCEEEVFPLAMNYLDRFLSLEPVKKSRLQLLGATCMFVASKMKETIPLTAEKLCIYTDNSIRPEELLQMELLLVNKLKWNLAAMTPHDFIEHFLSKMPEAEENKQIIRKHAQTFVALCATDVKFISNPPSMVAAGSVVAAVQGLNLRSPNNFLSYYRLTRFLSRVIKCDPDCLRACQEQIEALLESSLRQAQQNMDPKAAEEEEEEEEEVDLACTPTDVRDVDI
Procedure: as §3, §2

FLT3-ITD = target: T2, FLT3-ITD (Homo sapiens, UniProt P36888, ITD); test: Kinase inhibition assay FLT3-ITD; assay type: biochemical
T2 sequence (P36888 27-993): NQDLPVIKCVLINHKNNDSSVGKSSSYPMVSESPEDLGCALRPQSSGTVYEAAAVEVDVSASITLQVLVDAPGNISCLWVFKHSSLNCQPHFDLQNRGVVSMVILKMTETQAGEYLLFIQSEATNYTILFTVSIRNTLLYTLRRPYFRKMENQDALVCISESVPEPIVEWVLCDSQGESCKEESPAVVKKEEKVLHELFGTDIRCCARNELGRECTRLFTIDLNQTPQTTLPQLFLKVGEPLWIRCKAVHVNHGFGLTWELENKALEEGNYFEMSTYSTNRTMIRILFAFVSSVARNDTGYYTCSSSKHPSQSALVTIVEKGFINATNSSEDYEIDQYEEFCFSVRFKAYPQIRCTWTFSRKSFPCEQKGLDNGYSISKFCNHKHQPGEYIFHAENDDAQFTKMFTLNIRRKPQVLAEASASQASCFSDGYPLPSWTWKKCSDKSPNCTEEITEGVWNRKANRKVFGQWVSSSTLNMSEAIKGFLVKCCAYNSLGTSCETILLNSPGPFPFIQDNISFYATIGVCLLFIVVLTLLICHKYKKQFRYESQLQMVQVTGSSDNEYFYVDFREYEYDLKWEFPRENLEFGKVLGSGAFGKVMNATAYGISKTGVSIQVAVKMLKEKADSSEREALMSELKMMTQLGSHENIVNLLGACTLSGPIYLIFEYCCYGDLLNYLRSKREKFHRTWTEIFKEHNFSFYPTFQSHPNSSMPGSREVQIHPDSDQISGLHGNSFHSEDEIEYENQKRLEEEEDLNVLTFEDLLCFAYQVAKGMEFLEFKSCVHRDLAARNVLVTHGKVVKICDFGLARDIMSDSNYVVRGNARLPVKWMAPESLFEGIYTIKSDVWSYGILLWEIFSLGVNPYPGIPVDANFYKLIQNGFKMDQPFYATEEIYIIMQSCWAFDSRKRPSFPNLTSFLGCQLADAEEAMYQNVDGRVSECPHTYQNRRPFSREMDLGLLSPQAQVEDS
Procedure: as §3, §2

K562 cells = test: Resazurin-based viability assay, K562; assay type: cell-based; settings: Homo sapiens, 72 h, at least duplicate experiments
Excerpt: (§4) In parallel to kinase assays, we measured the effect of compounds on the viability of cancer cell lines MV4-11 and K562 using a resazurin-based assay. MV4-11 is an AML cell line dependent on a constitutively activated FLT3-ITD kinase with high sensitivity to FLT3 inhibition, K562 cells (chronic myelogenous leukemia) are independent on FLT3.
(§5) Human cell lines were obtained from the European Collection of Authenticated Cell Cultures (K562) and Cell lines service (MV4-11) and were cultivated according to the provider’s instructions. Briefly, cells were maintained in RPMI-1640 (MV4-11) or DMEM (K562) supplemented with 10% fetal bovine serum, penicillin (100 U/mL), and streptomycin (0.1 mg/mL) at 37 °C in 5% CO2. For the viability assays, cells were treated in triplicate with six different doses of each compound for 72 h. After treatments, the resazurin (Sigma Aldrich, St. Louis, MO, USA) solution was added for 4 h, and the fluorescence of resorufin corresponding to live cells was measured at 544/590 nm (excitation/emission) using a Fluoroskan Ascent microplate reader (Labsystems). The GI50 value, the drug concentration lethal to 50% of the cells, was calculated from the dose-response curves that resulted from the assays.

Src = target: T3, Src (Homo sapiens, UniProt P12931); test: Kinase selectivity panel at 1 µM (Eurofins), Src; assay type: biochemical; settings: read-out: residual enzyme activity Src
T3 construct: purchased Eurofins Discovery (France)
T3 sequence (P12931 whole entry): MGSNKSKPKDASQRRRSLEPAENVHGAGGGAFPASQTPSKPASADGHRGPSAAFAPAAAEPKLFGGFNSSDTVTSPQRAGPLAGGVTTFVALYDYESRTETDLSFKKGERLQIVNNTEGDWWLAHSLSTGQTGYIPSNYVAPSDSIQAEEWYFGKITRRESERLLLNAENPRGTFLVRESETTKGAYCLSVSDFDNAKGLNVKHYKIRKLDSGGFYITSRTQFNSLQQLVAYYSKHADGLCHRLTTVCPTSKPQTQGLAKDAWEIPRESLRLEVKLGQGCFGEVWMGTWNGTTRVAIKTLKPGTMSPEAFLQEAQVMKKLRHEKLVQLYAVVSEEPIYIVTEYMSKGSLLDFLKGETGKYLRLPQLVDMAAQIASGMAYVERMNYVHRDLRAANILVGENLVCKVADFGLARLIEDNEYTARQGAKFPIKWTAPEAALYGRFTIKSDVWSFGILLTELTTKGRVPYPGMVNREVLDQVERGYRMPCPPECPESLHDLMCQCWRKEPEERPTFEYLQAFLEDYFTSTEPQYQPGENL
Procedure: as §1, §2

MV4-11 cells = test: Resazurin-based viability assay, MV4-11; assay type: cell-based, Human; settings: for GI50: Homo sapiens, MV4-11, 72 h, resazurin, at least duplicate experiments
Excerpt: as §4, §5

FLT3 = target: T4, FLT3 (Homo sapiens, UniProt P36888); test: Kinase selectivity panel at 1 µM (Eurofins), FLT3; assay type: biochemical; settings: 30 kinases
T4 construct: purchased Eurofins Discovery (France)
T4 sequence (P36888 27-993): T2 sequence (P36888 27-993)
Procedure: as §1, §2

[1] = system: FLT3 signaling (FLT3 Y589/591, STAT5, ERK1/2) in MV4-11 cells; test: Western blot of FLT3 and downstream signaling in MV4-11; assay type: cell-based, Human; settings: MV4-11, 1 h treatment
Procedure: Next, we investigated the compounds for their ability to inhibit FLT3 and its downstream signaling in the MV4-11 cell line.
Cell lysates were prepared, and then proteins were separated on SDS-polyacrylamide gels and electroblotted onto nitrocellulose membranes.

[2] = at least duplicate experiments, read-out: IC50 CDK2/E
[3] = at least duplicate experiments, read-out: IC50 CDK4/D1
[4] = at least duplicate experiments, read-out: IC50 FLT3-ITD

CDK4 inhibition in selectivity panel (CDK4) | IC50 (CDK2/E; [2]) | IC50 (CDK4/D1; [3]) | IC50 (FLT3-ITD; [4]) | GI50 (K562 cells) | remaining activity at 1 µM (Src) | GI50 (MV4-11 cells) | FLT3 inhibition in selectivity panel (FLT3) | IC50 (CDK2/E; read-out: IC50 CDK2) | IC50 (CDK4/D1; read-out: IC50 CDK4) | IC50 (FLT3-ITD; read-out: IC50 FLT3) | remaining activity at 1 µM (CDK4; read-out: residual enzyme activity CDK4) | SMILES | autophosphorylation of FLT3 kinase at Y589/591 [1] | phosphorylation of downstream proteins STAT5 and ERK1/2 [1] | selectivity index (ratio for GI50's of K562 and MV4-11 cells) (MV4-11 cells; K562 / MV4-11) | concentration at which dephosphorylation of FLT3 was observed [1] | concentration giving nearly complete suppression of ERK1/2 [1]
potent CDK4 and FLT3 inhibitors | > 1000 nM and 1820 nM | 157 nM | 83 nM | 960 nM | ≤ 10% | 120 nM | potent CDK4 and FLT3 inhibitors | – | – | – | – | Cn1c(=O)n(C2CCCC2)c2nc(Nc3ccc(N4CCNCC4)cc3)ncc21 [14d] | – | – | – | – | –
potent CDK4 and FLT3 inhibitors | 300 nM | 20 nM | 68 nM | 4530 nM | ≤ 10% | 200 nM | potent CDK4 and FLT3 inhibitors | ≤ 300 nM | ≤ 300 nM | ≤ 300 nM | – | Cn1c(=O)n(C2CCCCC2)c2nc(Nc3ccc(N4CCNCC4)cc3)ncc21 [14e] | inhibits autophosphorylation of FLT3 kinase at Y589/591 | diminishes the phosphorylation | > 20 | – | –
– | 5060 nM | 1900 nM | 37 nM | 580 nM | ≤ 10% | 50 nM | 1st rank | – | – | – | 90% | CC(C)n1c(=O)n(C2CCCC2)c2nc(Nc3ccc(N4CCNCC4)cc3)ncc21 [15a, 9-cyclopentyl-7-isopropyl-2-((4-(piperazin-1-yl)phenyl)amino)-7,9-dihydro-8H-purin-8-one] | – | – | – | 8 nM | 40 nM
